Measured values as given in US5225437A, “1,2,4-trioxane compounds having antimalarial activity” (The Johns Hopkins University, priority 1992, dated 1993).
Entries after “also recorded” stand apart in the source; their conditions may differ. Read-outs that look alike come from different tables or passages of the source.

What was measured:
W-2 Indochine Clone = details: cited from earlier work; for IC50: Table V, read-out: Fifty Percent Inhibitory Concentrations, W-2 Indochine Clone; for Artemisinin Indices, W-2 Indochine Clone: intrinsic equimolar activity relative to the simultaneous artemisinin control
D-6 Sierra Leone Clone = details: cited from earlier work; for IC50: Table V, read-out: Fifty Percent Inhibitory Concentrations, D-6 Sierra Leone Clone; for Artemisinin Indices, D-6 Sierra Leone Clone: intrinsic equimolar activity relative to the simultaneous artemisinin control
[1] = system: P. falciparum D-6 African Clone; test: anti-malarial in vitro testing against P. falciparum clones, D-6 African clone; format: cell-based; details: Table VI, D-6 value over W-2 value
[2] = system: P. falciparum malaria parasite clone Sierra Leone (D-6); test: in vitro susceptibility testing, uptake of tritiated hypoxanthine as index of inhibition of parasite growth, Sierra Leone (D-6) clone; details: Plasmodium falciparum; for IC50: read-out: D6 IC50
[3] = system: P. falciparum malaria parasite clone Indochina (W-2); test: in vitro susceptibility testing, uptake of tritiated hypoxanthine as index of inhibition of parasite growth, Indochina (W-2) clone; format: cell-based; details: Plasmodium falciparum; for IC50: read-out: W2 IC50
[4] = system: P. falciparum malaria parasite clones; test: anti-malarial activity in words (overall, both P. falciparum clones)
[5] = compared with known anti-malarial drugs
[6] = Table III, INDOCHINA CLONE (W-2), read-out: IC90
[7] = Table IV, W2, read-out: W2 IC90

Row | Compound | IC50 [2] | IC50 ([3]; Table IV, W2) | IC90 [2] | IC50 (W-2 Indochine Clone) | Artemisinin Indices, W-2 Indochine Clone (W-2 Indochine Clone) | IC50 (D-6 Sierra Leone Clone) | Artemisinin Indices, D-6 Sierra Leone Clone (D-6 Sierra Leone Clone) | further results
1 | CCO[C@@H]1O[C@@H]2O[C@@]3(C)CC[C@H]4[C@H](C)CC[C@@H]([C@H]1C)[C@@]24OO3 [Arteether (alpha)] |  |  |  | 3.07 nM | 2.08 | 4.18 nM | 2.52 | 
2 | CCO[C@H]1O[C@@H]2O[C@@]3(C)CC[C@H]4[C@H](C)CC[C@@H]([C@H]1C)[C@@]24OO3 [Arteether (beta)] |  |  |  | 2.97 nM | 2.18 | 4.07 nM | 2.58 | 
3 | C[C@H]1[C@@H](OCc2ccc(C(=O)O)cc2)O[C@@H]2O[C@@]3(C)CC[C@H]4[C@H](C)CC[C@@H]1[C@@]24OO3 [Artelinic Acid] |  |  |  | 3.3 nM | 1.94 | 9.73 nM | 1.08 | 
4 | CO[C@H]1O[C@@H]2O[C@@]3(C)CC[C@H]4[C@H](C)CC[C@@H]([C@H]1C)[C@@]24OO3 [Artemether] |  |  |  | 3.34 nM | 1.92 | 4.49 nM | 2.34 | 
5 | C[C@@H]1CC[C@H]2[C@@H](C)C(=O)O[C@@H]3O[C@@]4(C)CC[C@@H]1[C@]32OO4 [Artemisinin, artemisinin] | 0.69 nM | 0.68 nM |  | 6.41 nM | 1.00 | 10.5 nM | 1.00 | Ratio of D-6/W-2 [1]: 2.4
6 | CCN(CC)CCCC(C)Nc1ccnc2cc(Cl)ccc12 (stereo not shown) [Chloroquine] | 1.21 nM |  |  | 100 nM | 0.06 | 10.8 nM | 0.97 | Ratio of D-6/W-2 [1]: 0.1; IC50 [3]: 61.7 nM
7 | COC(=O)c1ccc(C(=O)OCCC2CCCC3CCC4(C)OOC23C(OC)O4)cc1 (stereo not shown) [Compound 19] |  |  |  |  |  |  |  | anti-malarial activity / potency in words [4, 5]: substantial improvement over artemisinin; also recorded: comparable in potency to arteether; also recorded: comparable in potency to artemether; also recorded: considerably higher potency than the clinically used Chinese drug, artemisinin
8 | COC1OC2(C)CCC3CCCC(CCOC(=O)c4ccc(C(=O)OCCN(C)C)cc4)C31OO2 (stereo not shown) [Compound 20] |  |  | 20.4 nM |  |  |  |  | IC90 [3, 6]: 24.7 nM
9 | CCN(CC)C(=O)c1ccc(C(=O)OCCC2CCCC3CCC4(C)OOC23C(OC)O4)cc1 (stereo not shown) [Compound 21] |  |  |  |  |  |  |  | anti-malarial activity / potency in words [4, 5]: substantial improvement over artemisinin; also recorded: comparable in potency to arteether; also recorded: comparable in potency to artemether; also recorded: considerably higher potency than the clinically used Chinese drug, artemisinin
10 | COC1OC2(C)CCC3CCCC(CCOC(=O)c4ccc(C(=O)OCCC5CCCC6CCC7(C)OOC56C(OC)O7)cc4)C31OO2 (stereo not shown) [Compound 22] |  |  | 857 nM |  |  |  |  | 
11 | COC1OC2(C)CCC3CCCC(CCOS(=O)(=O)c4ccc(C)cc4)C31OO2 (stereo not shown) [Compound 23] |  |  | 19 nM |  |  |  |  | IC90 [3, 6]: 10.2 nM
12 | COC(=O)c1ccccc1S(=O)(=O)OCCC1CCCC2CCC3(C)OOC12C(OC)O3 (stereo not shown) [Compound 24] |  |  | 58.8 nM |  |  |  |  | IC90 [3, 6]: 19.7 nM
13 | COC1OC2(C)CCC3CCCC(CCOC(=O)CNC(=O)OC(C)(C)C)C31OO2 (stereo not shown) [Compound 25] |  |  | 4.43 nM |  |  |  |  | anti-malarial activity / potency in words [4, 5]: substantial improvement over artemisinin
14 | COC1OC2(C)CCC3CCCC(CCOC(=O)N(C)C)C31OO2 (stereo not shown) [Compound 26] |  |  | 3.93 nM |  |  |  |  | IC90 [3, 6]: 1.29 nM; anti-malarial activity / potency in words [4, 5]: particularly potent
15 | COC1OC2(C)CCC3CCCC(CCOS(=O)(=O)N(C)C)C31OO2 (stereo not shown) [Compound 27] |  |  | 30.2 nM |  |  |  |  | IC90 [3, 6]: 23 nM
16 | CCOP(=O)(OCC)OCCC1CCCC2CCC3(C)OOC12C(OC)O3 (stereo not shown) [Compound 28] |  |  | 0.99 nM |  |  |  |  | anti-malarial activity / potency in words [4]: substantial improvement over artemisinin; also recorded: comparable in potency to arteether; also recorded: higher potency than artemisinin; also recorded: particularly potent
17 | CCOP(=O)(COCCC1CCCC2CCC3(C)OOC12C(OC)O3)OCC (stereo not shown) [Compound 103] | 3.03 nM |  |  |  |  |  |  | IC90 ([2]; read-out: D6 IC90): 29.9 nM; IC50 [3]: 0.96 nM; IC90 ([3]; read-out: W2 IC90): 8.2 nM
18 | C[C@H]1[C@@H](O)O[C@@H]2O[C@@]3(C)CC[C@H]4[C@H](C)CC[C@@H]1[C@@]24OO3 [Dihydroartemisinin] |  |  |  | 1.79 nM | 3.58 | 1.83 nM | 5.75 | 
19 | CCCCN(CCCC)CCC(O)c1cc2c(Cl)cc(Cl)cc2c2cc(C(F)(F)F)ccc12 (stereo not shown) [Halofantrine] |  |  |  | 0.76 nM | 8.43 | 7.8 nM | 1.35 | 
20 | C=C[C@H]1C[N@@]2CC[C@H]1C[C@H]2[C@H](O)c1ccnc2ccc(OC)cc12 [Quinine] |  |  |  |  |  |  | 0.09 | 
21 | COc1ncnc(NS(=O)(=O)c2ccc(N)cc2)c1OC [Sulfadoxine] |  |  |  | 80600 nM | < 0.01 | 89.4 nM | 0.11 | 

Second part, led by results:

Row | IC50 [2] | IC50 ([3]; Table IV, W2) | IC90 [2] | Compound | IC50 (W-2 Indochine Clone) | Artemisinin Indices, W-2 Indochine Clone (W-2 Indochine Clone) | IC50 (D-6 Sierra Leone Clone) | Artemisinin Indices, D-6 Sierra Leone Clone (D-6 Sierra Leone Clone) | further results
22 | 0.27 nM | < 0.16 nM |  | COC1OC2(C)CCC3CCCC(CCOC(=O)N(c4ccccc4)c4ccccc4)C31OO2 (stereo not shown) [Compound 31] |  |  |  |  | IC90 ([2]; read-out: D6 IC90): 2.25 nM; IC90 [3, 7]: < 0.18 nM; anti-malarial activity / potency in words [4, 5]: substantial improvement over artemisinin; also recorded: comparable in potency to arteether; also recorded: higher potency than artemisinin; also recorded: particularly potent
23 | 5.16 nM | 1.04 nM |  | COC1OC2(C)CCC3CCCC(CCOS(=O)(=O)c4cccc5c(N(C)C)cccc45)C31OO2 (stereo not shown) [Compound 32] |  |  |  |  | IC90 ([2]; read-out: D6 IC90): 10 nM; IC90 [3, 7]: 7.17 nM
24 | 0.39 nM | < 0.28 nM |  | CCN(CC)C(=O)OCCC1CCCC2CCC3(C)OOC12C(OC)O3 (stereo not shown) [Compound 34] |  |  |  |  | IC90 ([2]; read-out: D6 IC90): 1.18 nM; IC90 [3, 7]: < 0.28 nM; anti-malarial activity / potency in words [4, 5]: comparable in potency to arteether; also recorded: higher potency than artemisinin; also recorded: particularly potent
25 | 256 nM | 24.2 nM | 115 nM | COC1OC2(C)CCC3CCCC(CCOC(=O)c4ccc(C(=O)O)cc4)C31OO2 (stereo not shown) [Compound 36] |  |  |  |  | IC90 ([2]; read-out: D6 IC90): 516 nM; IC90 [3, 6]: 46.1 nM; IC90 [3, 7]: 979 nM
26 |  |  | 13.7 nM | COCCC1CCCC2CCC3(C)OOC12C(OC)O3 (stereo not shown) [Compound 101] |  |  |  |  | IC90 [3, 6]: 4.62 nM
27 | 1.22 nM | 0.25 nM |  | COC1OC2(C)CCC3CCCC(CCOCc4ccccc4)C31OO2 (stereo not shown) [Compound 102] |  |  |  |  | IC90 ([2]; read-out: D6 IC90): 3.27 nM; IC90 [3, 7]: 1.53 nM; anti-malarial activity / potency in words [4, 5]: particularly potent anti-malarial activity
28 | 1.08 nM | 0.32 nM |  | C=CCOCCC1CCCC2CCC3(C)OOC12C(OC)O3 (stereo not shown) [Compound 104] |  |  |  |  | IC90 ([2]; read-out: D6 IC90): 15.7 nM; IC90 [3, 7]: 2.37 nM; anti-malarial activity / potency in words [4, 5]: particularly potent anti-malarial activity
29 | 1.82 nM | 0.34 nM |  | COC1OC2(C)CCC3CCCC(CCOCc4c(C)noc4C)C31OO2 (stereo not shown) [Compound 105] |  |  |  |  | IC90 ([2]; read-out: D6 IC90): 19.1 nM; IC90 [3, 7]: 1.64 nM; anti-malarial activity / potency in words [4, 5]: particularly potent anti-malarial activity
30 | 1.14 nM | < 0.32 nM |  | COC1OC2(C)CCC3CCCC(CCI)C31OO2 (stereo not shown) [Compound 301] |  |  |  |  | IC90 ([2]; read-out: D6 IC90): 6.33 nM; IC90 [3, 7]: < 0.32 nM
31 | 3.53 nM | 0.11 nM |  | OC(c1cc(C(F)(F)F)nc2c(C(F)(F)F)cccc12)C1CCCCN1 (stereo not shown) [Mefloquine] | 5.75 nM | 1.11 | 33.4 nM | 0.31 | 
32 | 1.08 nM | > 250 nM |  | CCc1nc(N)nc(N)c1-c1ccc(Cl)cc1 [Pyrimethamine] | 176 nM | 0.03 | 0.4 nM | 26.11 | 
